# Patent US20210285031A1, “FRET BASED PROTEIN BIOSENSOR FOR DETECTION OF CYCLIC DINUCLEOTIDES” (University of Washington, priority 2020, published 2021)
# Legend:
# [1] = molecular target: T1, CDA5 variant Y34A (parent CDA5, Lmo0553 Bateman domain) (Listeria monocytogenes, UniProt Q8Y9H5, Y34A); experiment: DRaCALA binding assay, CDA5 Y34A
# Method: (§3) It was hypothesized that by replacing the stabilizing tyrosine ring with an alanine (Y34A), c-di-AMP binding would be minimized in a manner unlikely to disrupt protein stability. […] Next, increasing concentrations of c-di-AMP were added to purified CDA5 and Y34A CDA5 and analyzed by plate reader assay for FRET response.
# [2] = molecular target: T2, CDA5 (eCFP-Lmo0553 Bateman domain (truncated at N-127)-eYFP FRET fusion; SEQ ID NO:36, Bateman domain SEQ ID NO:35) (Listeria monocytogenes, UniProt Q8Y9H5); experiment: In vitro FRET measurement, CDA5
# [3] = molecular target: Listeria monocytogenes Lmo0553, full length (Listeria monocytogenes, UniProt Q8Y9H5); experiment: DRaCALA radioactive nucleotide binding assay, full length Lmo0553
# [4] = molecular target: T3, full length Lmo0553 fused to eCFP (N terminus) and eYFP (C terminus) (Listeria monocytogenes, UniProt Q8Y9H5); experiment: FRET response, full length Lmo0553 fusion; type: biochemical
# T3 construct: recombinant, purified
# Source text: To leverage these structural rearrangements, the FRET pair eCFP and eYFP were respectively fused to the N and C termini of full length Lmo0553. […] Additional engineering may have allowed for the generation of a FRET biosensor utilizing full length Lmo0553, but without a response to optimize, these efforts would have been arduous and potentially unsuccessful.
# [5] = molecular target: T2, CDA5 (eCFP-Lmo0553 Bateman domain (truncated at N-127)-eYFP FRET fusion; SEQ ID NO:36, Bateman domain SEQ ID NO:35); experiment: DRaCALA radioactive nucleotide binding assay, CDA5
# [6] = molecular target: T1, CDA5 variant Y34A (parent CDA5, Lmo0553 Bateman domain); experiment: In vitro FRET measurement, CDA5 Y34A; conditions: increasing concentrations of c-di-AMP
# Method: as §3
# [7] = tested on: STING; conditions: background; cited from earlier work
# [8] = molecular target: T4, murine STING CTD (mSTING-CTD; CDN binding domain SEQ ID NO:33) (Mus musculus, UniProt Q3TBT3); experiment: DRaCALA radioactive nucleotide binding assay, STING-CTD; conditions: 500 μM unlabeled nucleotide, ~1 nM [32P] 2′3′-cGAMP
# T4 construct: 6xHis; made in house; host or cells: E. coli Rosetta (DE3)pLysS
# T4 sequence (Q3TBT3 134-378 limits assumed): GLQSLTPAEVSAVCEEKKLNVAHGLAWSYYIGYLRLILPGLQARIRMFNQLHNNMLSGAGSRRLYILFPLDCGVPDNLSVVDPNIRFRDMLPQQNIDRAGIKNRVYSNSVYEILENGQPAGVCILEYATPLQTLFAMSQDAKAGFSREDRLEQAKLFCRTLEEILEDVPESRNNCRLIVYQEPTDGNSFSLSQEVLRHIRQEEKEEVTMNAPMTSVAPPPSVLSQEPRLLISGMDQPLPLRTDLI
# Source text: (§1) FIGS. 1A-1H. BioSTING Design and Optimization. (1A) Schematic representation of full-length STING (top) and BioSTING with additional GGSGG linker between mTFP and STING-CTD (bottom). Abbreviations are defined as follows: TM (transmembrane region), DD (dimerization domain), CBD (CDN binding domain), and CTT (C-terminal tail). (1B) Overlay and structural alignment of human STING CTD in apo (“blue”) and c-di-GMP bound (“gray”) states (PDB 4F5E and 4F5D, respectively). […] The N and C-terminal helices of the CTD are highlighted with the terminal residues in red and their associated displacement following ligand binding labeled in angstroms. (1C) Model of the FRET increase which occurs upon CDN binding. Generated with Biorender.com. […] In all panels, individual data points of n=2 biological replicates are shown.
# FIGS. 6A and 6B. BioSTING development and characterization.
# (§2) Finally, the dissociation kinetics were monitored by determining the rate that cold nucleotide could compete off bound radioactive nucleotide. […] [^32P] […] Binding assays were performed in binding buffer [40 mM Tris pH 7.5, 100 mM NaCl, 20 mM MgCl2] at room temperature.
# [9] = molecular target: T5, BioSTING (Mus musculus, UniProt Q3TBT3); experiment: DRaCALA binding specificity: excess unlabeled nucleotides competing with [32P] 2′3′-cGAMP; set-up: species or system murine; conditions: 500 μM excess unlabeled nucleotide, ~1 nM [32P] 2′3′-cGAMP
# T5 construct: made in house; host or cells: E. coli Rosetta (DE3)pLysS
# T5 sequence (Q3TBT3 with tags, fused parts or gaps): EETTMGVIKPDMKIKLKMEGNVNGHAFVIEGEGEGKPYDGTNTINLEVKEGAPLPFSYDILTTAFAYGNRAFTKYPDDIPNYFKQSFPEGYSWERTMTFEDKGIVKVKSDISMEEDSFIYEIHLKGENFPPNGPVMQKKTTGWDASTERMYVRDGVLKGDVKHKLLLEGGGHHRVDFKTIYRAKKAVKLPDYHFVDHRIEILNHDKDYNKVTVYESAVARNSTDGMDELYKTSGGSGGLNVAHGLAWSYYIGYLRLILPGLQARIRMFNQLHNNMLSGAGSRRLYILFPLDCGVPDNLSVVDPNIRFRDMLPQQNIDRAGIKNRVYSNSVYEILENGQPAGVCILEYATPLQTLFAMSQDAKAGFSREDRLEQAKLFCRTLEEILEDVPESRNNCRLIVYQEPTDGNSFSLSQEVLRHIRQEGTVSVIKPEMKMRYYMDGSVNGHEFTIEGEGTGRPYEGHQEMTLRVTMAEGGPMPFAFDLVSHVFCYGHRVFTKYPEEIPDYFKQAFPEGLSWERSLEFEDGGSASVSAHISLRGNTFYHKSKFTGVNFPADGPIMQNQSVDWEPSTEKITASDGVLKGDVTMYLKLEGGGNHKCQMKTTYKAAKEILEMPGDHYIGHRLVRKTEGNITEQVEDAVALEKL
# [10] = molecular target: T6, BioSTING (mTFP-GGSGG-murine STING CTD (L152-E335)-mKO2 FRET fusion; SEQ ID NO:34, CDN binding domain SEQ ID NO:33) (Mus musculus, UniProt Q3TBT3); experiment: DRaCALA radioactive nucleotide binding assay, BioSTING; conditions: 500 μM unlabeled nucleotide, ~1 nM [32P] 2′3′-cGAMP
# T6 construct: His tag (inferred from Ni-NTA purification and the pET15b vector); made in house; host or cells: E. coli Rosetta (DE3)pLysS
# T6 sequence (Q3TBT3 with tags, fused parts or gaps): T5 sequence (Q3TBT3 with tags, fused parts or gaps)
# Source text: as §1, §2
# [11] = molecular target: T7, cGAS (recombinant SUMO-mcGAS) (Mus musculus, UniProt Q8C6L5); experiment: cGAS activity assay measuring 2′3′-cGAMP production using BioSTING; type: biochemical; conditions: fixed cGAS; 250 μM ATP, 250 μM GTP, 50 ng ISD; 37° C.
# T7 construct: product read by BioSTING
# Method: FIGS. 2A-2F. Real time measurement of CDN synthesis and determination of CDN levels from cellular extracts. […]. In panels (2B)-(2D) and (2F), data are presented as mean±s.d. of n=3 (2B, 2F) or n=8 (2C, 2D) biological replicates.
# BioSTING FRET assays are carried out in a 96-well format using a fluorescent plate reader making it amenable to in vitro high throughput screening efforts (FIG. 7B). […]. In addition to screening for modulators of CDN synthase activity, BioSTING could also potentially be used to screen directly for STING agonists and antagonists.
# Enzyme assays were initiated by the addition of 1 mM ATP, 1 mM GTP and 1 μg ISD (FIGS. 2B, 7A, and 7B) or by the addition of 250 μM ATP, 250 μM GTP, and 50 ng ISD (FIGS. 2C, 2D, and 7C).
# [12] = tested on: cGAS; conditions: literature value (Pfizer); read-out: reported IC50; cited from earlier work
# [13] = excess (500 μM) unlabeled c-di-AMP, DRaCALA
# T7 sequence (Q8C6L5 whole entry): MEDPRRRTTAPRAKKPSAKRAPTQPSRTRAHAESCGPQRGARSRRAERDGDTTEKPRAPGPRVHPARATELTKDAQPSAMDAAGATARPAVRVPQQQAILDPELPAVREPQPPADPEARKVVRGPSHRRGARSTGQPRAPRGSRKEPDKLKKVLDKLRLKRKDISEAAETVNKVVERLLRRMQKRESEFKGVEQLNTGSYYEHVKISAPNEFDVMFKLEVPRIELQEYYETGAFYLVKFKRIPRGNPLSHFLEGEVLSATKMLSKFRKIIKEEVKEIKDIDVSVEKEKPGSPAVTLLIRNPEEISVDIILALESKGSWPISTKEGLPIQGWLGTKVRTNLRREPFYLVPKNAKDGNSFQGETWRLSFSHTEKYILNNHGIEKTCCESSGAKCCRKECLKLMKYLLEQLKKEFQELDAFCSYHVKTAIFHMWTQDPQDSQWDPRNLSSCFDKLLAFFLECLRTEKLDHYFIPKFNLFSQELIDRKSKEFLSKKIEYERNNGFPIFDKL
smiles,measurement,setting,value
"Nc1ncnc2c1ncn2[C@@H]1O[C@@H]2COP(=O)(O)O[C@H]3[C@@H](O)[C@H](n4cnc5c(N)ncnc54)O[C@@H]3COP(=O)(O)O[C@H]2[C@H]1O [3′3′-c-di-AMP, 3′3′-cyclic di-adenosine monophosphate]",c-di-AMP binding,[1],c-di-AMP bound to CDA5 but not the Y34A CDA5 point mutant control
same,EC50,[2],0.38 µM
same,kon (less than the sampling limit),[2]; FRET responses stable immediately upon addition of c-di-AMP,< 10 s
same,Emax,[2]; read-out: FRET increase,23%
same,Kd,[3],4.83 µM
same,competition of bound [32P] c-di-AMP by unlabeled nucleotide,[3],only unlabeled c-di-AMP
same,koff (time for competition by unlabeled c-di-AMP),[3]; [13],completely within two seconds
same,FRET response upon the addition of c-di-AMP,[4],no FRET response was observed
same,Kd,[5],5.87 µM
same,competition of bound [32P] c-di-AMP by unlabeled nucleotide,[5],only unlabeled c-di-AMP
same,koff (time for competition by unlabeled c-di-AMP),[5]; [13],completely within two seconds
same,FRET increase upon the addition of c-di-AMP,[6],CDA5 but not Y34A CDA5 produced a robust FRET increase
same,affinity for STING relative to 2′3′-cGAMP,[7],markedly reduced affinities
"Nc1nc2c(ncn2[C@@H]2O[C@@H]3COP(=O)(O)O[C@H]4[C@@H](O)[C@H](n5cnc6c(N)ncnc65)O[C@@H]4COP(=O)(O)O[C@H]3[C@H]2O)c(=O)[nH]1 [3′3′-cGAMP, 3′,3′-cyclic GMP AMP]",affinity for STING relative to 2′3′-cGAMP,[7],markedly reduced affinities
Nc1ncnc2c1ncn2[C@@H]1O[C@H](COP(=O)(O)OP(=O)(O)OP(=O)(O)O)[C@@H](O)[C@H]1O [ATP],competition of bound [32P] 2′3′-cGAMP by unlabeled nucleotide,[8],"not ATP, GTP, cAMP, or cGMP could compete off"
same,competing off bound [32P] 2′3′-cGAMP,[9],not
same,competition of bound [32P] 2′3′-cGAMP by unlabeled nucleotide,[10],"not ATP, GTP, cAMP, or cGMP could compete off"
Nc1nc2c(ncn2[C@@H]2O[C@H](COP(=O)(O)OP(=O)(O)OP(=O)(O)O)[C@@H](O)[C@H]2O)c(=O)[nH]1 [GTP],competition of bound [32P] 2′3′-cGAMP by unlabeled nucleotide,[8],"not ATP, GTP, cAMP, or cGMP could compete off"
same,competing off bound [32P] 2′3′-cGAMP,[9],not
same,competition of bound [32P] 2′3′-cGAMP by unlabeled nucleotide,[10],"not ATP, GTP, cAMP, or cGMP could compete off"
O=C(NC1CCCCC1C(=O)O)c1cnn2c(O)cc(-c3ccccc3)nc12 (centres unmarked) [PF-06928215],IC50,[11],~12 µM
same,IC50,[12],5 µM
"Nc1nc2c(ncn2[C@@H]2O[C@@H]3COP(=O)(O)O[C@H]4[C@@H](O)[C@H](n5cnc6c(=O)[nH]c(N)nc65)O[C@@H]4COP(=O)(O)O[C@H]3[C@H]2O)c(=O)[nH]1 [c-di-GMP, 3′,3′-cyclic di-GMP]",affinity for STING relative to 2′3′-cGAMP,[7],markedly reduced affinities
Nc1nc2c(ncn2[C@@H]2O[C@@H]3COP(=O)(O)O[C@H]3[C@H]2O)c(=O)[nH]1 [cGMP],competition of bound [32P] 2′3′-cGAMP by unlabeled nucleotide,[8],"not ATP, GTP, cAMP, or cGMP could compete off"
same,competing off bound [32P] 2′3′-cGAMP,[9],not
same,competition of bound [32P] 2′3′-cGAMP by unlabeled nucleotide,[10],"not ATP, GTP, cAMP, or cGMP could compete off"
